According to patent US20180311611A1, “ABSORBENT FOR THE SELECTIVE REMOVAL OF HYDROGEN SULFIDE” (BASF SE, priority 2015, published 2018):
Read-outs that look alike come from different tables or passages of the source.

Key:
[1] = pKA determination of amines by pH at half-equivalence with hydrochloric acid; conditions: for pKA (120° C.) / pKA (50° C.): aqueous solution, amine 0.01 mol/kg; for ΔpKA (120 − 50° C.): difference between 120° C. and 50° C.
Description: (§1) The pKA values are suitably determined in aqueous solution with an amine concentration of 0.01 mol/kg at the given temperature by determining the pH at the point of half-equivalence of the dissociation stage under consideration by means of addition of hydrochloric acid (1st dissociation stage 0.005 mol/kg; 2nd dissociation stage: 0.015 mol/kg; 3rd dissociation stage: 0.025 mol/kg). Measurement is accomplished using a thermostated closed jacketed vessel in which the liquid was blanketed with nitrogen. The Hamilton Polylite Plus 120 pH electrode was used, which was calibrated with pH 7 and pH 12 buffer solutions.

Description for physchem: as §1

| pKa (physchem; aqueous solution of the amine) | pKA (120° C.) ([1]; dissociation stage pKA1) | ΔpKA (120 − 50° C.) ([1]; dissociation stage pKA1) | pKA (50° C.) ([1]; dissociation stage pKA2) | pKA (120° C.) ([1]; dissociation stage pKA2) | ΔpKA (120 − 50° C.) ([1]; dissociation stage pKA2) | pKA (50° C.) ([1]; dissociation stage pKA3) | pKA (120° C.) ([1]; dissociation stage pKA3) | ΔpKA (120 − 50° C.) ([1]; dissociation stage pKA3) | pKA (50° C.) ([1]; dissociation stage pKA1) | SMILES | pKa (physchem) |
| --- | --- | --- | --- | --- | --- | --- | --- | --- | --- | --- | --- |
| 9.8 | 8.17 | 1.63 | 8.01 | 6.67 | 1.34 | – | – | – | – | CN(C)C1CCC(N(C)C)CC1 (stereo not shown) [1,4-Bis(dimethylamino)cyclohexane] | – |
| – | – | – | – | – | – | – | – | – | – | CN(C)C1CCCCC1 [Cyclohexyl-N,N-dimethylamine] | 10 |
| 10.1 | 8.63 | 1.51 | 10.13 | 8.62 | 1.51 | 10.12 | 8.69 | 1.43 | – | CN(C)CCCN(CCO)CCCN(C)C [Hydroxyethylbis(dimethylaminopropyl)amine] | – |
| 11.2 | 9.78 | 1.59 | – | 9.35 | 1.88 | 10.45 | 7.97 | 2.48 | 11.37 | CN(C)CCCN1CN(CCCN(C)C)CN(CCCN(C)C)C1 [N,N,N′,N′,N″,N″-Hexamethyl-1,3,5-triazine-1,3,5(2H,4H,6H)-tripropanamine] | – |
